Among the data in US10745382B2 (BRISTOL-MYERS SQUIBB COMPANY, priority 2015, dated 2020) are IC50 values, retold here.

T1 sequence (Q9NZQ7 with tags, fused parts or gaps): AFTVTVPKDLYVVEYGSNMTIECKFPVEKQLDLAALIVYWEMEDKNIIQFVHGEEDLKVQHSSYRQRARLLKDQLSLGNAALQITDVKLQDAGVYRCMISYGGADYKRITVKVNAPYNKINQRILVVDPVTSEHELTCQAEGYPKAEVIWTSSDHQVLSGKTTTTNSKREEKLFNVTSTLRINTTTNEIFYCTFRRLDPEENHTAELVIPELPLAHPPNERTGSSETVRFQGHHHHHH

The first test concerns the target T1, PD-1/PD-L1 (Homo sapiens, UniProt Q9NZQ7).
T1 construct: made in house; host or cells: HEK293T
The test is described as follows: PD-1/PD-L1 Homogenous Time-Resolved Fluorescence (HTRF) binding assay. Conditions: PD-L1-His 10 nM, PD-1-Ig 20 nM; numeric IC50; read-out: Range or IC50. A digest of the protocol:
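dPBS + 0.1% BSA + 0.05% Tween-20 buffer; Eu-cryptate anti-Ig 1 nM final, APC anti-His 20 nM final; HTRF read. Counter-assays: PD-1-Ig/PD-L2-His 20 & 5 nM, CD80-His/PD-L1-Ig 100 & 10 nM.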
Background: TR-FRET usually uses a lanthanide donor and a delayed reading to cut background.
Broadly, the IC50 is the concentration needed to halve the response being measured. As to `Cc1c(COc2cc(OCc3cncc(C#N)c3)c(C=O)cc2Cl)cccc1-c1cccc(OCCCN2CC[C@@H](O)C2)c1Cl` [Example 1509, (R)-5-((4-chloro-5-((2′-chloro-3′-(3-(3-hydroxypyrrolidin-1-yl)propoxy)-2-methyl-[1,1′-biphenyl]-3-yl)methoxy)-2-formylphenoxy)methyl)nicotinonitrile], the IC50 is 12 nM.

Still in this test, the particulars now being: PD-L1-His 10 nM, PD-1-Ig 20 nM; value given as range class; read-out: Range or IC50.
Take `Cc1c(COc2cc(OCc3cncc(C(N)=O)c3)c(CN3CCCC[C@H]3C(=O)O)cc2Cl)cccc1-c1cccc(OCCCN2CCC(CO)(C(=O)O)C2)c1Cl` (stereo partly drawn) [Example 1107, (2S)-1-(2-((5-carbamoylpyridin-3-yl)methoxy)-4-((3′-(3-(3-carboxy-3-(hydroxymethyl)pyrrolidin-1-yl)propoxy)-2′-chloro-2-methyl-[1,1′-biphenyl]-3-yl)methoxy)-5-chlorobenzyl)piperidine-2-carboxylic Acid]: the IC50 lay in the range of 0.21 to 10 nM.

For the compound `Cc1c(COc2cc(OCc3cncc(C#N)c3)c(CN[C@](C)(CO)C(=O)O)cc2Cl)cccc1-c1cccc(OCCCN2CCC(CO)(C(=O)O)C2)c1Cl` (stereo partly drawn) [Example 1108, 1-(3-((3′-((4-((((R)-2-carboxy-1-hydroxypropan-2-yl)amino)methyl)-2-chloro-5-((5-cyanopyridin-3-yl)methoxy)phenoxy)methyl)-2-chloro-2′-methyl-[1,1′-biphenyl]-3-yl)oxy)propyl)-3-(hydroxymethyl)pyrrolidine-3-carboxylic Acid], the IC50 lay within 0.21 to 10 nM.

With `Cc1c(COc2cc(OCc3cncc(C#N)c3)c(CN3CCCC[C@H]3C(=O)O)cc2Cl)cccc1-c1cccc(OCCCN2CCC(CO)(C(=O)O)CC2)c1C` [Example 1110, (S)-1-(4-((3′-(3-(4-carboxy-4-(hydroxymethyl)piperidin-1-yl)propoxy)-2,2′-dimethyl-[1,1′-biphenyl]-3-yl)methoxy)-5-chloro-2-((5-cyanopyridin-3-yl)methoxy)benzyl)piperidine-2-carboxylic Acid], the IC50 lay within 10 to 100 nM.

On to `Cc1c(COc2cc(OCc3cncc(C(N)=O)c3)c(CN3CCCC[C@H]3C(=O)O)cc2Cl)cccc1-c1cccc(OCCCN2CCC(CO)(C(=O)O)CC2)c1C` [Example 1111, (S)-1-(2-((5-carbamoylpyridin-3-yl)methoxy)-4-((3′-(3-(4-carboxy-4-(hydroxymethyl)piperidin-1-yl)propoxy)-2,2′-dimethyl-[1,1′-biphenyl]-3-yl)methoxy)-5-chlorobenzyl)piperidine-2-carboxylic Acid], for which the IC50 is 0.21 to 10 nM.

Turning to `Cc1c(COc2cc(OCc3cncc(C#N)c3)c(CN[C@](C)(CO)C(=O)O)cc2Cl)cccc1-c1cccc(OCCCN2CCC(CO)(C(=O)O)CC2)c1C` [Example 1112, (R)-1-(3-((3′-((4-(((2-carboxy-1-hydroxypropan-2-yl)amino)methyl)-2-chloro-5-((5-cyanopyridin-3-yl)methoxy)phenoxy)methyl)-2,2′-dimethyl-[1,1′-biphenyl]-3-yl)oxy)propyl)-4-(hydroxymethyl)piperidine-4-carboxylic Acid], the IC50 lay in the range of 0.21 to 10 nM.

As to `Cc1c(COc2cc(OCc3cncc(C(N)=O)c3)c(CN[C@](C)(CO)C(=O)O)cc2Cl)cccc1-c1cccc(OCCCN2CCC(CO)(C(=O)O)CC2)c1C` [Example 1113, (R)-1-(3-((3′-((5-((5-carbamoylpyridin-3-yl)methoxy)-4-(((2-carboxy-1-hydroxypropan-2-yl)amino)methyl)-2-chlorophenoxy)methyl)-2,2′-dimethyl-[1,1′-biphenyl]-3-yl)oxy)propyl)-4-(hydroxymethyl)piperidine-4-carboxylic Acid], the IC50 lay within 0.21 to 10 nM.

Turning to `Cc1c(COc2cc(OCc3cncc(C(N)=O)c3)c(CN3CCCC[C@H]3C(=O)O)cc2Cl)cccc1-c1cccc(OCCCN2CCC(CO)(C(=O)O)CC2)c1Cl` [Example 1114, (S)-1-(2-((5-carbamoylpyridin-3-yl)methoxy)-4-((3′-(3-(4-carboxy-4-(hydroxymethyl)piperidin-1-yl)propoxy)-2′-chloro-2-methyl-[1,1′-biphenyl]-3-yl)methoxy)-5-chlorobenzyl)piperidine-2-carboxylic Acid], the IC50 lay within 0.21 to 10 nM.

As to `Cc1c(COc2cc(OCc3cncc(C#N)c3)c(CN[C@](C)(CO)C(=O)O)cc2Cl)cccc1-c1cccc(OCCCN2CCC(CO)(C(=O)O)CC2)c1Cl` [Example 1115, (R)-1-(3-((3′-((4-(((2-carboxy-1-hydroxypropan-2-yl)amino)methyl)-2-chloro-5-((5-cyanopyridin-3-yl)methoxy)phenoxy)methyl)-2-chloro-2′-methyl-[1,1′-biphenyl]-3-yl)oxy)propyl)-4-(hydroxymethyl)piperidine-4-carboxylic Acid], the IC50 was 0.21 to 10 nM.

For the compound `Cc1c(COc2cc(OCc3cncc(C(N)=O)c3)c(CN[C@](C)(CO)C(=O)O)cc2Cl)cccc1-c1cccc(OCCCN2CCC(CO)(C(=O)O)CC2)c1Cl` [Example 1116, (R)-1-(3-((3′-((5-((5-carbamoylpyridin-3-yl)methoxy)-4-(((2-carboxy-1-hydroxypropan-2-yl)amino)methyl)-2-chlorophenoxy)methyl)-2-chloro-2′-methyl-[1,1′-biphenyl]-3-yl)oxy)propyl)-4-(hydroxymethyl)piperidine-4-carboxylic Acid], the IC50 lay within 0.21 to 10 nM.

Regarding `CCOC(=O)C1(CO)CCN(CCCOc2cccc(-c3cccc(COc4cc(OCc5cncc(C#N)c5)c(CNC(C)(CO)CO)cc4Cl)c3C)c2Cl)C1` (stereo not shown) [Example 1117, ethyl 1-(3-((2-chloro-3′-((2-chloro-5-((5-cyanopyridin-3-yl)methoxy)-4-(((1,3-dihydroxy-2-methylpropan-2-yl)amino)methyl)phenoxy)methyl)-2′-methyl-[1,1′-biphenyl]-3-yl)oxy)propyl)-3-(hydroxymethyl)pyrrolidine-3-carboxylate], the IC50 is 0.21 to 10 nM.

On to `Cc1c(COc2cc(OCc3cncc(C#N)c3)c(CNC(C)(CO)CO)cc2Cl)cccc1-c1cccc(OCCCN2CCC(CO)(C(=O)O)C2)c1Cl` (stereo not shown) [Example 1118, 1-(3-((2-chloro-3′-((2-chloro-5-((5-cyanopyridin-3-yl)methoxy)-4-(((1,3-dihydroxy-2-methylpropan-2-yl)amino)methyl)phenoxy)methyl)-2′-methyl-[1,1′-biphenyl]-3-yl)oxy)propyl)-3-(hydroxymethyl)pyrrolidine-3-carboxylic Acid], for which the IC50 fell in the range of 10 to 100 nM.

Consider `Cc1c(COc2cc(OCc3cncc(C#N)c3)c(CN[C@](C)(CO)C(=O)O)cc2Cl)cccc1-c1cccc(OCCCN2CC[C@@H](O)C2)c1Cl` [Example 1121, (R)-2-((5-Chloro-4-((2′-chloro-3′-(3-((R)-3-hydroxypyrrolidin-1-yl)propoxy)-2-methyl-[1,1′-biphenyl]-3-yl)methoxy)-2-((5-cyanopyridin-3-yl)methoxy)benzyl)amino)-3-hydroxy-2-methylpropanoic Acid], for which the IC50 lay within 0.21 to 10 nM.

In the case of `Cc1c(COc2cc(OCc3cncc(C#N)c3)c(CN3CCCC[C@H]3C(=O)O)cc2Cl)cccc1-c1cccc(OCCCN2CC[C@@H](O)C2)c1Cl` [Example 1510, (S)-1-(5-chloro-4-((2′-chloro-3′-(3-((R)-3-hydroxypyrrolidin-1-yl)propoxy)-2-methyl-[1,1′-biphenyl]-3-yl)methoxy)-2-((5-cyanopyridin-3-yl)methoxy)benzyl)piperidine-2-carboxylic acid], the IC50 lay within 0.21 to 10 nM.

With `Cc1c(COc2cc(OCc3cncc(C#N)c3)c(CN[C@@](C)(CO)C(=O)O)cc2Cl)cccc1-c1cccc(OCCCN2CC[C@@H](O)C2)c1Cl` [Example 1511, (S)-2-((5-chloro-4-((2′-chloro-3′-(3-((R)-3-hydroxypyrrolidin-1-yl)propoxy)-2-methyl-[1,1′-biphenyl]-3-yl)methoxy)-2-((5-cyanopyridin-3-yl)methoxy)benzyl)amino)-3-hydroxy-2-methylpropanoic acid], the IC50 was 0.21 to 10 nM.

On to `Cc1c(COc2cc(OCc3cncc(C#N)c3)c(CN[C@H](CO)C(=O)O)cc2Cl)cccc1-c1cccc(OCCCN2CC[C@@H](O)C2)c1Cl` [Example 1512, (R)-2-((5-chloro-4-((2′-chloro-3′-(3-((R)-3-hydroxypyrrolidin-1-yl)propoxy)-2-methyl-[1,1′-biphenyl]-3-yl)methoxy)-2-((5-cyanopyridin-3-yl)methoxy)benzyl)amino)-3-hydroxypropanoic acid], for which the IC50 is 0.21 to 10 nM.

With `Cc1c(COc2cc(OCc3cncc(S(C)(=O)=O)c3)c(CN3CCCC[C@H]3C(=O)O)cc2Cl)cccc1-c1cccc(OCCCN2CC[C@@H](O)C2)c1Cl` [Example 1513, (S)-1-(5-chloro-4-((2′-chloro-3′-(3-((R)-3-hydroxypyrrolidin-1-yl)propoxy)-2-methyl-[1,1′-biphenyl]-3-yl)methoxy)-2-((5-(methylsulfonyl)pyridin-3-yl)methoxy)benzyl)piperidine-2-carboxylic acid], the IC50 was 10 to 100 nM.

Consider `Cc1c(COc2cc(OCc3cncc(C#N)c3)c(CN[C@@](C)(CO)C(=O)O)cc2Cl)cccc1-c1cccc(OCCCN2CC[C@@H](O)C2)c1C(F)F` [Example 1514, (S)-2-((5-chloro-2-((5-cyanopyridin-3-yl)methoxy)-4-((2′-(difluoromethyl)-3′-(3-((R)-3-hydroxypyrrolidin-1-yl)propoxy)-2-methyl-[1,1′-biphenyl]-3-yl)methoxy)benzyl)amino)-3-hydroxy-2-methylpropanoic acid], for which the IC50 lay in the range of 0.21 to 10 nM.

As for `Cc1c(COc2cc(OCc3cncc(C#N)c3)c(CO)cc2Cl)cccc1-c1cccc(OCCCN2CC[C@@H](O)C2)c1C(F)F` [Example 1515, (R)-5-((4-chloro-5-((2′-(difluoromethyl)-3′-(3-(3-hydroxypyrrolidin-1-yl)propoxy)-2-methyl-[1,1′-biphenyl]-3-yl)methoxy)-2-(hydroxymethyl)phenoxy)methyl)nicotinonitrile], the IC50 lay in the range of 10 to 100 nM.
